What was measured:
[1] = system: Surinam grass; assay: Test B pre-/postemergence herbicide test; type: in vivo, Urochloa decumbens; conditions: for Plant response rating (0 to 100 scale), Surinam Grass: 0 is no effect, 100 is complete control, preemergence
How it was run: (§1)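 Visual rating, 0 (no effect) to 100 (complete control), versus untreated controls after 13–15 d in greenhouse. Pre- and postemergence applications (postemergence plants 2–18 cm, 1–4 leaves); flooded paddy arm at 2-leaf stage. Compounds in non-phytotoxic solvent plus surfactant.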

[2] = system: blackgrass; assay: Test B postemergence herbicide test; type: in vivo, Alopecurus myosuroides
How it was run: (§2)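 After treating 2-leaf paddy plants or 2–18 cm postemergence plants (1 to 4 leaves) with formulated chemical, researchers kept them in a greenhouse for 13–15 days. Effects were judged visually versus controls: 0 indicates none, 100 total control.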

[3] = system: large crabgrass; assay: Test B pre-/postemergence herbicide test; type: in vivo, Digitaria sanguinalis; conditions: for Plant response rating (0 to 100 scale), Crabgrass, Large: 0 is no effect, 100 is complete control, preemergence
How it was run: as §1

[4] = system: cocklebur; assay: Test B pre-/postemergence herbicide test; type: in vivo, Xanthium strumarium; conditions: for Plant response rating (0 to 100 scale), Cocklebur: 0 is no effect, 100 is complete control, preemergence
How it was run: (§3)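 Flooded paddy rice and barnyardgrass were treated at the 2-leaf stage; upland plantings received compound either on sown seed or on 1- to 4-leaf seedlings. All were kept 13–15 days in a greenhouse and scored visually, 0–100, relative to untreated plants.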

[5] = system: pigweed; assay: Test B pre-/postemergence herbicide test; type: in vivo, Amaranthus retroflexus; conditions: for Plant response rating (0 to 100 scale), Pigweed: 0 is no effect, 100 is complete control, preemergence
How it was run: as §1

[6] = system: barnyardgrass; assay: Test B pre-/postemergence herbicide test; type: in vivo, Echinochloa crus-galli; conditions: for Plant response rating (0 to 100 scale), Barnyardgrass: 0 is no effect, 100 is complete control, preemergence
How it was run: as §3

[7] = system: giant foxtail; assay: Test B pre-/postemergence herbicide test; type: in vivo, Setaria faberi; conditions: for Plant response rating (0 to 100 scale), Foxtail, Giant: 0 is no effect, 100 is complete control, preemergence
How it was run: as §1

[8] = system: barnyardgrass; assay: Test B flooded paddy test; type: in vivo, Echinochloa crus-galli; conditions: 1000 g ai/ha, scale 0 to 100 (0 no effect, 100 complete control)
How it was run: as §2

[9] = system: rice; assay: Test B flooded paddy test; type: in vivo, Oryza sativa; conditions: 1000 g ai/ha, scale 0 to 100 (0 no effect, 100 complete control)
How it was run: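 Read-out: visual comparison with controls, scored 0 to 100, where 100 means complete control and 0 no effect. Formulated chemicals were applied postemergence to plants 2–18 cm tall (1- to 4-leaf), or to flooded-paddy plants at the 2-leaf stage, then held 13 to 15 days under glass.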

[10] = system: morningglory; assay: Test B pre-/postemergence herbicide test; type: in vivo, Ipomoea coccinea; conditions: for Plant response rating (0 to 100 scale), Morningglory: 0 is no effect, 100 is complete control, preemergence
How it was run: as §3

[11] = system: lambsquarters; assay: Test B pre-/postemergence herbicide test; type: in vivo, Chenopodium album
How it was run: as §1

[12] = system: corn; assay: Test B pre-/postemergence herbicide test; type: in vivo, Zea mays; conditions: for Plant response rating (0 to 100 scale), Corn: 0 is no effect, 100 is complete control, preemergence
How it was run: as §1

[13] = system: wild oat; assay: Test B postemergence herbicide test; type: in vivo, Avena fatua
How it was run: (§4)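 Visual ratings, 0 (no effect) to 100 (complete control), made versus controls after 13–15 d greenhouse. Paddy plants treated at 2-leaf stage; postemergence plants at 1- to 4-leaf stage, 2–18 cm tall.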

[14] = system: wheat; assay: Test B postemergence herbicide test; type: in vivo, Triticum aestivum; parameters: key to Wheat plant response rating: 0 = no effect, 100 = complete control
How it was run: as §4

[15] = system: small flower umbrella sedge; assay: Test B flooded paddy test; type: in vivo, Cyperus difformis; conditions: 1000 g ai/ha, scale 0 to 100 (0 no effect, 100 complete control)
How it was run: as §2

[16] = system: velvetleaf; assay: Test B pre-/postemergence herbicide test; type: in vivo, Abutilon theophrasti; conditions: for Plant response rating (0 to 100 scale), Velvetleaf: 0 is no effect, 100 is complete control, preemergence
How it was run: as §1

[17] = system: ducksalad; assay: Test B flooded paddy test; type: in vivo, Heteranthera limosa; conditions: 1000 g ai/ha, scale 0 to 100 (0 no effect, 100 complete control)
How it was run: as §2

[18] = postemergence, 16 g ai/ha, scale 0 to 100
[19] = postemergence, 62 g ai/ha, scale 0 to 100
[20] = 125 g ai/ha, visual rating, scale 0 (no effect) to 100 (complete control), postemergence
[21] = Postemergence, 500 g ai/ha, scale 0 (no effect) to 100 (complete control)
[22] = 500 g ai/ha, scale 0 to 100, 0 no effect, 100 complete control, preemergence

## CCn1nc(C(C)(C)C)cc1C(=O)Nc1cc(C(=O)NC)c(F)cc1F [Compound 251]
[1]; [18]
  Surinam Grass plant response rating: 0
[1]; [19]
  Surinam Grass plant response rating: 0
[2]; [18]
  Blackgrass plant response rating: 10
[2]; [19]
  Blackgrass plant response rating: 50
[3]; [18]
  Crabgrass, Large plant response rating: 0
[3]; [19]
  Crabgrass, Large plant response rating: 0
[4]; [18]
  Cocklebur plant response rating: 0
[4]; [19]
  Cocklebur plant response rating: 0
[5]; [18]
  Pigweed plant response rating: 0
[5]; [19]
  Pigweed plant response rating: 10
[6]; [18]
  Barnyardgrass plant response rating: 0
[6]; [19]
  Barnyardgrass plant response rating: 0
[7]; [18]
  Foxtail, Giant plant response rating: 0
[7]; [19]
  Foxtail, Giant plant response rating: 0
[8]
  Barnyardgrass plant response rating: 0
[9]
  Rice plant response rating: 40
[10]; [18]
  Morningglory plant response rating: 0
[10]; [19]
  Morningglory plant response rating: 0
[11]; [18]
  Lambsquarters plant response rating: 0
[11]; [19]
  Lambsquarters plant response rating: 10
[12]; [18]
  Corn plant response rating: 0
[12]; [19]
  Corn plant response rating: 0
[13]; [18]
  Oat, Wild plant response rating: 20
[13]; [19]
  Oat, Wild plant response rating: 20
[14]; [18]
  Wheat plant response rating: 20
[14]; [19]
  Wheat plant response rating: 20
[15]
  Sedge, Umbrella plant response rating: 40
[16]; [18]
  Velvetleaf plant response rating: 0
[16]; [19]
  Velvetleaf plant response rating: 10
[17]
  Ducksalad plant response rating: 30

## CCOC(=O)c1cccc(NC(=O)c2nn(C(C)C)nc2C)c1 [Compound 397]
[1]; 125 g ai/ha
  Plant response rating (0 to 100 scale), Surinam Grass: 0
[1]; [20]
  Surinam Grass plant response rating: 10
[1]; [21]
  Surinam Grass plant response rating: 10
[2]; [20]
  Blackgrass plant response rating: 0
[2]; [21]
  Blackgrass plant response rating: 0
[3]; 125 g ai/ha
  Plant response rating (0 to 100 scale), Crabgrass, Large: 0
[3]; [20]
  Crabgrass, Large plant response rating: 0
[3]; [21]
  Crabgrass, Large plant response rating: 10
[4]; 125 g ai/ha
  Plant response rating (0 to 100 scale), Cocklebur: 0
[4]; [20]
  Cocklebur plant response rating: 0
[4]; [21]
  Cocklebur plant response rating: 0
[5]; 125 g ai/ha
  Plant response rating (0 to 100 scale), Pigweed: 0
[5]; [20]
  Pigweed plant response rating: 0
[5]; [21]
  Pigweed plant response rating: 0
[6]; 125 g ai/ha
  Plant response rating (0 to 100 scale), Barnyardgrass: 0
[6]; [20]
  Barnyardgrass plant response rating: 0
[6]; [21]
  Barnyardgrass plant response rating: 0
[7]; 125 g ai/ha
  Plant response rating (0 to 100 scale), Foxtail, Giant: 0
[7]; [20]
  Foxtail, Giant plant response rating: 10
[7]; [21]
  Foxtail, Giant plant response rating: 40
[8]
  Barnyardgrass plant response rating: 0
[9]
  Rice plant response rating: 10
[10]; 125 g ai/ha
  Plant response rating (0 to 100 scale), Morningglory: 0
[10]; [20]
  Morningglory plant response rating: 0
[10]; [21]
  Morningglory plant response rating: 10
[11]; [20]
  Lambsquarters plant response rating: 0
[11]; [21]
  Lambsquarters plant response rating: 0
[12]; 125 g ai/ha
  Plant response rating (0 to 100 scale), Corn: 0
[12]; [20]
  Corn plant response rating: 0
[12]; [21]
  Corn plant response rating: 10
[13]; [20]
  Oat, Wild plant response rating: 0
[13]; [21]
  Oat, Wild plant response rating: 0
[14]; [20]
  Wheat plant response rating: 0
[14]; [22]
  Wheat plant response rating: 0
[14]; [21]
  Wheat plant response rating: 10
[15]
  Sedge, Umbrella plant response rating: 70
[16]; 125 g ai/ha
  Plant response rating (0 to 100 scale), Velvetleaf: 0
[16]; [20]
  Velvetleaf plant response rating: 10
[16]; [21]
  Velvetleaf plant response rating: 50
[17]
  Ducksalad plant response rating: 0

## CCNC(=O)c1ccc(F)c(NC(=O)c2nn(C(C)C)nc2C)c1 [Compound 401]
[1]; 125 g ai/ha
  Plant response rating (0 to 100 scale), Surinam Grass: 0
[1]; [20]
  Surinam Grass plant response rating: 0
[1]; [21]
  Surinam Grass plant response rating: 0
[2]; [20]
  Blackgrass plant response rating: 0
[2]; [21]
  Blackgrass plant response rating: 0
[3]; 125 g ai/ha
  Plant response rating (0 to 100 scale), Crabgrass, Large: 0
[3]; [20]
  Crabgrass, Large plant response rating: 0
[3]; [21]
  Crabgrass, Large plant response rating: 0
[4]; 125 g ai/ha
  Plant response rating (0 to 100 scale), Cocklebur: 0
[4]; [20]
  Cocklebur plant response rating: 0
[4]; [21]
  Cocklebur plant response rating: 0
[5]; 125 g ai/ha
  Plant response rating (0 to 100 scale), Pigweed: 0
[5]; [20]
  Pigweed plant response rating: 0
[5]; [21]
  Pigweed plant response rating: 0
[6]; 125 g ai/ha
  Plant response rating (0 to 100 scale), Barnyardgrass: 0
[6]; [20]
  Barnyardgrass plant response rating: 0
[6]; [21]
  Barnyardgrass plant response rating: 0
[7]; 125 g ai/ha
  Plant response rating (0 to 100 scale), Foxtail, Giant: 0
[7]; [20]
  Foxtail, Giant plant response rating: 0
[7]; [21]
  Foxtail, Giant plant response rating: 0
[8]
  Barnyardgrass plant response rating: 0
[9]
  Rice plant response rating: 20
[10]; 125 g ai/ha
  Plant response rating (0 to 100 scale), Morningglory: 0
[10]; [20]
  Morningglory plant response rating: 0
[10]; [21]
  Morningglory plant response rating: 0
[11]; 125 g ai/ha, 0 is no effect, 100 is complete control, preemergence
  Plant response rating (0 to 100 scale), Lambsquarters: 0
[11]; [20]
  Lambsquarters plant response rating: 0
[11]; [21]
  Lambsquarters plant response rating: 0
[12]; 125 g ai/ha
  Plant response rating (0 to 100 scale), Corn: 0
[12]; [20]
  Corn plant response rating: 0
[12]; [21]
  Corn plant response rating: 0
[13]; [20]
  Oat, Wild plant response rating: 0
[13]; [21]
  Oat, Wild plant response rating: 0
[14]; [20]
  Wheat plant response rating: 0
[14]; [22]
  Wheat plant response rating: 0
[14]; [21]
  Wheat plant response rating: 0
[15]
  Sedge, Umbrella plant response rating: 0
[16]; 125 g ai/ha
  Plant response rating (0 to 100 scale), Velvetleaf: 0
[16]; [20]
  Velvetleaf plant response rating: 0
[16]; [21]
  Velvetleaf plant response rating: 0
[17]
  Ducksalad plant response rating: 0

Source: US20060069132A1, “Azolecarboxamide herbicides” (priority 2004, published 2006)
